Measurements from publication PMC5487681, “Identification of Antifungal H^+-ATPase Inhibitors with Effect on Plasma Membrane Potential” (Antimicrobial Agents and Chemotherapy, 2017).
Like-named read-outs stand apart in the source and are kept apart here. Residues, ends and D or L forms follow the SMILES beside them.

Key:
S. cerevisiae Pma1 = S. cerevisiae Pma1 (Saccharomyces cerevisiae, UniProt P05030); conditions: read-out: IC50 Pma1, ATP hydrolysis assay; cited from earlier work
Hep-G2 cells = assay: cells; assay type: cell-based, human
Procedure: In a tissue culture-treated 96-well plate (catalog number 655180; Grenier), 10,000 human hepatocyte Hep-G2 cells (catalog number 85011430; Sigma-Aldrich) were plated in 200 μl growth medium (Eagle minimal essential medium; catalog number M2279; Sigma-Aldrich), 2 mM L-glutamine (catalog number 03-020-1B; Biological Industries), 1% nonessential amino acids (catalog number XC-E1154/100; Biosera), 10% fetal bovine serum (catalog number BI-04-007-1A; Biological Industries) and incubated overnight at 37°C in 5% CO2. On the next day, fresh growth medium plus 2 μl compound in DMSO was added. The plate was incubated for a further 24 h at 37°C in 5% CO2. The medium was replaced with 100 μl freshly prepared 0.5 mg/ml 2,3-bis(2-methoxy-4-nitro-5-sulfophenyl)-5-[(phenylamino)carbonyl]-2H-tetrazolium hydroxide, sodium salt, solution (catalog number X4251; Sigma-Aldrich) in RPMI 1640 medium (catalog number R7509; Sigma-Aldrich) with 3.83 μg/ml phenazine methosulfate (catalog number P9625; Sigma-Aldrich) and incubated for 2 to 3 h at 37°C in 5% CO2. The color reaction was measured on a Victor X5 plate reader (PerkinElmer) by determination of the OD450 and the half-maximal (50%) effective concentration (EC50) was calculated.

Ca^2+-ATPase (SERCA1a) = Ca^2+-ATPase (SERCA1a) (Oryctolagus cuniculus, UniProt P04191); assay: ATP hydrolysis assay, SERCA; assay type: biochemical, rabbit; conditions: Table 1
S. cerevisiae = assay: Medium acidification assay, S. cerevisiae; assay type: cell-based, Saccharomyces cerevisiae; conditions: 50% inhibition of medium acidification, 12 min, n = 2 to 3
Procedure: (§1) Frozen stocks of C. albicans and S. cerevisiae were transferred to YPD agar plates and incubated overnight at 34°C. On the next day, the cells were suspended and washed twice in 50 mM KCl, pH 6.7, after pelleting of the cells by centrifugation at 3,000 × g for 5 min. The cells were then starved overnight at 4°C in the KCl solution. […] The pH drop was then monitored by determination of the fluorescent signal with excitation at 485 nm and emission at 538 nm on a Fluoroskan Ascent plate reader (Thermo Fisher Scientific) for 12 min. The rate of medium acidification was calculated on the basis of the slope of the drop in fluorescence.

S. cerevisiae cells [1] = assay: Intracellular ATP (iATP), S. cerevisiae; assay type: cell-based, Saccharomyces cerevisiae; conditions: for Effects on iATP levels, in words: S. cerevisiae and C. albicans (Fig. 5A, B), compared to compounds 14, 19 and BM2
Procedure: (§2) S. cerevisiae and C. albicans cells were grown and washed as described above for the membrane potential and integrity assay and resuspended in SG medium (0.7% yeast nitrogen base without amino acids [BD], 50 mM succinic acid adjusted to pH 7 with Trizma base) to OD600 of 0.2 and 0.1, respectively. One hundred microliters of an S. cerevisiae or C. albicans cell suspension and 1 μl compound in DMSO were incubated for 30 min. Twenty-five microliters of the suspension was then transferred to a black 96-well plate containing 25 μl BacTiter-Glo reagent (Promega, Madison, WI) and incubated for 15 min in the dark. The luminescence was read on SpectraMax X5 (Molecular Devices, Sunnyvale, CA) plate reader with a 10 s of shaking and a 0.5 s integration time. Standard curves at 10, 100, and 1,000 nM ATP were performed with every experiment.

C. albicans cells = assay: Intracellular ATP (iATP), C. albicans; assay type: cell-based, Candida albicans; conditions: for EC50: Candida albicans, 0.5 h, 30 min, dose response (Fig. 5C), read-out: EC50 of the increase in iATP levels, C. albicans; for Maximum iATP level (per well), C. albicans: highest concentrations of inhibitors tested (Fig. 5C)
Procedure: as §2

C. albicans [2] = assay: Medium acidification assay, C. albicans; assay type: cell-based, Candida albicans
Procedure: as §1

S. cerevisiae cells [3] = assay: Membrane potential and integrity assay, DiBAC4(3)/PI image cytometry; assay type: cell-based, Saccharomyces cerevisiae; conditions: for PI signal (membrane integrity), in words: compound 14 after 5 min, BM2 within 5 min; for PI signal (membrane integrity), in words / DiBAC4(3) signal (membrane depolarization), in words: compound 17 15 µM, 30 min (Fig. S1); for DiBAC4(3) signal (membrane depolarization), in words: compound 14 after 5 min of exposure
Procedure: Cells were transferred from frozen stocks to 3 ml of YPD medium and grown overnight at 30°C and 150 rpm. The culture was diluted to an OD600 of 0.15 and grown for 3 to 4 h at 30°C and 150 rpm to an OD600 of 0.5 to 0.7. The cells were pelleted by centrifugation at 2,000 × g for 2 min and washed in buffer A (100 mM MOPS and 1 mM KCl adjusted to pH 7.0 with Trizma base). The washing procedure was repeated, and the cells were resuspended in buffer A to an OD600 of 0.2. Fifty microliters of buffer A containing 3.3 μg/ml propidium iodide (PI; catalog number P1304MP; Thermo Fisher Scientific) and 1 μg/ml DiBAC4(3) (catalog number D8189; Sigma-Aldrich) was mixed with 50 μl the S. cerevisiae cell suspension in buffer A and transferred to a 96-well plate with 1 μl of inhibitor in DMSO, and the components were mixed.
Approximately 30 μl sample was transferred to an A2 glass slide (ChemoMetec, Allerod, Denmark), and the slide was incubated at 30°C before the cells were counted on a NucleoCounter NC-3000 cytometer (ChemoMetec). Five thousand cells were counted per experiment with an exposure time of 1,000 ms. A dark field was used as the masking channel to select the yeast cells. The DiBAC4(3) channel (excitation, 530 nm; emission, 675/75 nm) and the PI channel (excitation, 630 nm; emission, 740/60 nm) were used to measure the membrane potential and membrane integrity, respectively. To account for the fluorescent spillover from the PI channel to the DiBAC4(3) channel, 15% compensation was applied. In all experiments, 1.9% compensation was used to compensate for the DiBAC4(3)-to-PI spillover. The results were analyzed using NucleoView software (ChemoMetec). Only cells with a pixel size of 10 to 40 were included in the analysis, thus avoiding analysis of noncell artifacts. Carbonyl cyanide m-chlorophenylhydrazone (CCCP) was used as a positive control for decreased membrane potential, and lysis buffer was used to validate lost membrane integrity.

C. albicans [4] = conditions: read-out: IC50 for C. albicans, previously reported value; cited from earlier work
[5] = ATP hydrolysis at pH 7.4 (compounds marked b)
[6] = Saccharomyces cerevisiae, 0.2 h
[7] = Candida albicans, 0.2 h, 50% inhibition of medium acidification, 12 min, n = 2 to 3, read-out: IC50 for acidification, C. albicans
[8] = 30 min of exposure, 15 μM (Fig. 4C)
[9] = Homo sapiens, HepG2, 24 h, medium with 10% fetal bovine serum, XTT readout, read-out: EC50 for Hep-G2 cells at 24 h

Sequence of Ca^2+-ATPase (SERCA1a) (P04191 1-994 isoform P04191-2): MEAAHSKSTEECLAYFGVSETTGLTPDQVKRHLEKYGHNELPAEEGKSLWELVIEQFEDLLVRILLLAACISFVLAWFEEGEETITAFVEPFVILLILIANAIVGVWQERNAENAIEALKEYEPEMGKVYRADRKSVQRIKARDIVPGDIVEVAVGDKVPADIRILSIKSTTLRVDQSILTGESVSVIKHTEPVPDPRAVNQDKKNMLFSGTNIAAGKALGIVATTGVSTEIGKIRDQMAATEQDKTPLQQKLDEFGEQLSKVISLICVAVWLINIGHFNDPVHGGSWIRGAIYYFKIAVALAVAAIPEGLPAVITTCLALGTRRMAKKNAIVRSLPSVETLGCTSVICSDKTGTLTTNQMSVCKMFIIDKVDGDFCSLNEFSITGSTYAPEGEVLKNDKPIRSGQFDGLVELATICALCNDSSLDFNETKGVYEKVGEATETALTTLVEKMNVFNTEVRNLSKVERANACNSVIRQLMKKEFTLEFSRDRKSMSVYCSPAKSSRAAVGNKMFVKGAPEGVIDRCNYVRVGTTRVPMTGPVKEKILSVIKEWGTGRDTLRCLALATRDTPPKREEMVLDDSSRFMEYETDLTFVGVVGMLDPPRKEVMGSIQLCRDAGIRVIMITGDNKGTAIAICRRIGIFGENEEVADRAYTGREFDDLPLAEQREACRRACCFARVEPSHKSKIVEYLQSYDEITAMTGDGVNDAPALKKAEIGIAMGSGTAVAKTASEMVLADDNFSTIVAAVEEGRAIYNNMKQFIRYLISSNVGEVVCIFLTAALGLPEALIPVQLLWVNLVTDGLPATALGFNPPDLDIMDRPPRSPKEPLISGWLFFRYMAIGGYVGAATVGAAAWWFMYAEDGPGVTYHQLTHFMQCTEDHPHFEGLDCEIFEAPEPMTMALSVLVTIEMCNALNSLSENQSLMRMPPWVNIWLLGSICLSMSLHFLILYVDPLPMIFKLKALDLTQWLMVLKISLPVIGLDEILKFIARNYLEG
Sequence of S. cerevisiae Pma1 (P05030 whole entry): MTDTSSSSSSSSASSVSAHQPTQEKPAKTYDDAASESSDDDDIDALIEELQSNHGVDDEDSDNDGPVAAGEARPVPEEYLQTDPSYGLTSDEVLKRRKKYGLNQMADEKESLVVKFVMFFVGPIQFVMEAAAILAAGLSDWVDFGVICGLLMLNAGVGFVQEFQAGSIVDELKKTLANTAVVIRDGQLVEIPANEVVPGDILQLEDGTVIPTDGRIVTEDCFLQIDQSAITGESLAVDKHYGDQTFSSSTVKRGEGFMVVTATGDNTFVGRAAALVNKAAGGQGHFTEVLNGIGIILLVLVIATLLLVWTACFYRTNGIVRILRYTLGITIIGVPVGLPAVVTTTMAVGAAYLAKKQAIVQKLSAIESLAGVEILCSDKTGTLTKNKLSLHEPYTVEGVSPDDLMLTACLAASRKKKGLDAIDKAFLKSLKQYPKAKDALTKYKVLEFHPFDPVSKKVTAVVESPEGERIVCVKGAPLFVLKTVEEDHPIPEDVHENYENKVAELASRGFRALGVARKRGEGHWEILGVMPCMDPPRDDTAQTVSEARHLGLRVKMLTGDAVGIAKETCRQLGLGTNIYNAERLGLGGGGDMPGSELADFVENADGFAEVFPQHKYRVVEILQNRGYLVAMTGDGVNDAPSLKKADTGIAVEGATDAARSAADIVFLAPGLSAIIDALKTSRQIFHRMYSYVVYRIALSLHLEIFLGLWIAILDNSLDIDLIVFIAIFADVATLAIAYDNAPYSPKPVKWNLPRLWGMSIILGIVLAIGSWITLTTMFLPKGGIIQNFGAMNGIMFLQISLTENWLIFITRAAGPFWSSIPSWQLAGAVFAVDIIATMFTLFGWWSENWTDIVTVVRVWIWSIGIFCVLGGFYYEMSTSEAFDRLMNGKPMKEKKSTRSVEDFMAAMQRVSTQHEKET

SMILES: N=C(N)NCCC[C@@H](N)C(=O)N[C@H](CCCNC(=N)N)C(=O)N[C@H](CCCNC(=N)N)C(=O)N[C@H](Cc1ccccc1)C(=O)N[C@H](Cc1c[nH]c2ccccc12)C(=O)N[C@H](Cc1c[nH]c2ccccc12)C(=O)N[C@H](Cc1ccccc1)C(=O)N[C@H](CCCNC(=N)N)C(=O)N[C@H](CCCNC(=N)N)C(=O)N[C@H](CCCNC(=N)N)C(N)=O [BM2, reference compound] (HELM PEPTIDE1{[dR].[dR].[dR].[dF].[dW].[dW].[dF].[dR].[dR].[dR].[am]}$$$$V2.0)
- IC50 (S. cerevisiae Pma1): 0.5 µM
- Effect on mammalian Hep-G2 cells (Hep-G2 cells): no effect
- EC50 (Hep-G2 cells; 24 h): > 100 µM

SMILES: Cc1c(-c2ccccc2)[o+]c2ccccc2c1C#Cc1ccccc1 [Compound 6]
- IC50 (Ca^2+-ATPase (SERCA1a); [5]): 3.4 ± 0.6 µM

SMILES: Oc1cccc(Nc2nc(-c3ccc(Cl)c(Cl)c3)cs2)c1 [Compound 7]
- IC50 (Ca^2+-ATPase (SERCA1a); [5]): 3.8 ± 0.6 µM

SMILES: COc1ccc(Cn2c(SCc3cc(C)ccc3C)nc3cc(OC)c(OC)cc3c2=N)cc1 [Compound 12]
- IC50 (Ca^2+-ATPase (SERCA1a); ATP hydrolysis at pH 7): > 105 µM

SMILES: CCCCc1nc2sc3c(NCCCN(C)C)ncnc3c2c2c1CCCC2 [Compound 14]
- IC50 (S. cerevisiae; [6]): 11.2 ± 2.7 µM
- iATP levels in the presence of oligomycin, S. cerevisiae (S. cerevisiae cells [1]; 30 min, oligomycin A at 40 μM): comparable to those for control cells
- Increase in iATP levels compared to untreated control, S. cerevisiae (S. cerevisiae cells [1]; 30 min of treatment, species of the BM2 value not given): 200%
- Increase in iATP levels compared to untreated control, C. albicans (C. albicans cells; 30 min of treatment): 1,500%
- EC50 (C. albicans cells): 13 µM
- Maximum iATP level (per well), C. albicans (C. albicans cells): about 500 nM
- IC50 (C. albicans [2]; [7]): 6.6 ± 2.5 µM
- Cells DiBAC4(3) positive and PI negative (S. cerevisiae cells [3]; [8]): 44%
- Cells PI positive but DiBAC4(3) negative (S. cerevisiae cells [3]; [8]): 0.7%
- Cells both PI and DiBAC4(3) negative (S. cerevisiae cells [3]; [8]): 16%
- Cells both PI and DiBAC4(3) positive (S. cerevisiae cells [3]; [8]): 39%
- PI signal (membrane integrity), in words (S. cerevisiae cells [3]): minimal increase
- DiBAC4(3) signal (membrane depolarization), in words (S. cerevisiae cells [3]): elevated
- EC50 (Hep-G2 cells; [9]): 2.3 µM

SMILES: CCCCc1nc2sc3c(NCCCN(C)C)nc(SC)nc3c2c2c1CCC2 [Compound 15]
- IC50 (S. cerevisiae; [6]): 1.7 ± 0.1 µM
- IC50 (C. albicans [2]; [7]): 1.6 µM
- EC50 (Hep-G2 cells; [9]): 2.8 ± 0.1 µM

SMILES: CN(C)CCCNc1ncnc2c1sc1nc(N3CCCCC3)c3c(c12)CCCC3 [Compound 16]
- IC50 (S. cerevisiae; [6]): 7.6 ± 3.4 µM
- IC50 (C. albicans [2]; [7]): 3.4 ± 1.6 µM
- EC50 (Hep-G2 cells; [9]): 2.6 ± 0.9 µM

SMILES: CCc1nc2sc3c(NCCCN(C)C)ncnc3c2c2c1CCCC2 [Compound 17]
- IC50 (S. cerevisiae; [6]): 39.6 ± 10.3 µM
- Effects on iATP levels, in words (S. cerevisiae cells [1]): minimal effects
- IC50 (C. albicans [2]; [7]): 19.1 ± 1.7 µM
- PI signal (membrane integrity), in words (S. cerevisiae cells [3]): not significantly increased
- DiBAC4(3) signal (membrane depolarization), in words (S. cerevisiae cells [3]): did not increase
- EC50 (Hep-G2 cells; [9]): 5.8 ± 1.1 µM

SMILES: CN(C)CCCNc1ncnc2c1sc1nc(-c3ccccc3)c3c(c12)CCC3 [Compound 18]
- IC50 (S. cerevisiae; [6]): 12.5 ± 1.1 µM
- IC50 (C. albicans [2]; [7]): 8.8 ± 0.4 µM
- EC50 (Hep-G2 cells; [9]): 3.6 ± 1.1 µM

SMILES: CCN(CC)CCCNc1nc(SC)nc2c1sc1nc(-c3ccccc3)c3c(c12)CCC3 [Compound 19]
- IC50 (S. cerevisiae; [6]): 2.3 ± 0.1 µM
- EC50 (C. albicans cells): 7 µM
- Maximum iATP level (per well), C. albicans (C. albicans cells): about 500 nM
- IC50 (C. albicans [2]; [7]): 2.3 ± 0.5 µM
- EC50 (Hep-G2 cells; [9]): 24.2 ± 0.5 µM
- Toxicity window between C. albicans and Hep-G2 cells (Hep-G2 cells; human, 24 h): 3 fold

SMILES: O=c1c2ccccc2[se]n1-c1ccccc1 [Ebselen, reference compound]
- IC50 (S. cerevisiae; [6]): 7.6 µM
- IC50 (C. albicans [2]; [7]): 9.4 ± 2.1 µM
- IC50 (C. albicans [2]; Candida albicans, read-out: IC50 for C. albicans, extracellular acidification): 11 µM
- IC50 (C. albicans [4]): 14 µM
- EC50 (Hep-G2 cells; [9]): 10.7 ± 7 µM

SMILES: [O]=[V]([O-])([O-])[O-] [Vanadate, reference compound]
- IC50 (S. cerevisiae): > 40 µM
- Effects on iATP levels, in words (S. cerevisiae cells [1]): minimal effects
- IC50 (C. albicans [2]; 50% inhibition of medium acidification, 12 min, n = 2 to 3, read-out: IC50 for acidification, C. albicans): > 40 µM
- EC50 (Hep-G2 cells; 24 h, medium with 10% fetal bovine serum, XTT readout, read-out: EC50 for Hep-G2 cells at 24 h): > 500 µM
